Experiment [1] addresses T1, human leukocyte elastase (HLE) (Homo sapiens, UniProt P08246).
T1 sequence (P08246 30-267): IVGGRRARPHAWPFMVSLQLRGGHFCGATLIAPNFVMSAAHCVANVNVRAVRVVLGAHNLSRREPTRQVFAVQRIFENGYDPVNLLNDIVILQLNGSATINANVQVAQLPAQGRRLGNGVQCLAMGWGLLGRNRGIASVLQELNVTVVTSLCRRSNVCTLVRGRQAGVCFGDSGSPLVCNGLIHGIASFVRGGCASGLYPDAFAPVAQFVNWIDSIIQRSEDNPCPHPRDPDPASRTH
Briefly: in vitro anti-elastase activity against human leukocyte elastase, substrate Me-OSAAPV-p-NA, spectrophotometry. The experiment is classed as biochemical. The settings on record: compound concentration 0.1%; HLE 40 milliunits per ml; 37° C., 60 minutes. How it is done: The anti-elastase activity of compounds according to the invention was determined in vitro against human leukocyte elastase (HLE)
The test was performed in the following manner:
A substrate Me-OSAAPV-p-NA (methyl-O-succinate alanine alanine proline valine-p-nitroanilide) to which is added the HLE (40 milliunits per ml) and 0.1% of the test compound is incubated at 37° C. for 60 minutes.
The % of inhibition of the elastase activity tested is then determined by spectrophotometry.

Experiment [2] concerns Staphylococcus epidermis. The experiment in a line: ex vivo bacteria/skin adhesion model, 3H-thymidine labelled bacteria on intact human skin (Example 8). To be noted: test product at 10%, 1 hour at 20° C., control (PBS) = 100%. The experiment is classed as cell-based. Here is the method: The activity of the honey on the adhesion of micro-organisms to the skin or to human mucous membranes was measured.
This ex vivo bacteria/skin adhesion model is based on the use of intact human skin mounted in a sandwich between a bottomless 96 wells plate and a Plexiglas support. The impervious individualized wells make it possible to test in a standard format the effect of acacia honey on the adhesion of Staphylococcus epidermis (resident bacteria) to the surface of the skin. The bacteria are radiolabelled in the growth phase by the incorporation of 3H-thymidine. This bacterial flora is then deposited in each well. After incubation for one hour at 20° C., the wells are washed three times with phosphate buffered saline (PBS) in order to remove the free bacteria. The acacia honey is then added at 5 and 10% and incubation allowed to proceed for 1 hour at 20° C. At the end of this incubation the content of each well is recovered and counted in scintillation fluid (desorbed bacteria). The wells are then washed with a chaotropic solution which leads to the elution of the adherent bacteria. The washing solutions are also counted in scintillation fluid (adherent bacteria). The positive and negative controls (Fucogel® acid (poly-[(α-1,3)-Fuc-(α-1,3)-Gal-(α-1,3)-galacturonic]) acid and Bioecolia® (Oligo-[α-1,4)-Gluc-(α-1,2)-Fruc-(α-1,6)-Gluc]) described in the publication of Wolf F. et al. (edition of 19th IFSCC Congress, Sydney, 1996) are included in the study as references.

Experiment [3] relates to surviving human skins irradiated by UVA. The experiment in a line: surviving human skins irradiated by UVA (8 J/cm2), morphometry of elastin fibres and collagen (Example 6). The settings on record: UVA 8 J/cm2 once, 5 μl of compound at 0.2% in ethanol every two days, 7 days at 37° C. How it is done:
The activity of the compound of Example 2 was evaluated on irradiated surviving human skins irradiated by UVA (8 J/cm2).
The test is performed in the following manner:
Fragments of normal human skin derived from four different donors are deposited in inserts placed in culture wells. Culture medium supplemented with antibiotics is added to the bottom of the wells. Passage by slow diffusion occurs between the two compartments through the intermediary of a porous membrane (pore size: 12 μm).
The culture medium is renewed every three days.
Every two days 5 μl of the test compound previously dissolved at 0.2% in ethanol are added to the skin fragments.
The skins are maintained in survival for 7 days at 37° C.
The skins are irradiated once only at 8 J/cm2 (Vilbert-Lourmat RMX-3W lamp).
The elastin fibres are stained blue with (+) catechol and quantified morphometrically by computer-assisted image analysis. The mean percentage dermal surface area occupied by the elastin fibres was thus evaluated.

Experiment [4] deals with Staphylococcus epidermis. The experiment in a line: ex vivo bacteria/skin adhesion model, 3H-thymidine labelled bacteria on intact human skin (Example 9). In kind it is cell-based. The settings on record: for Adherent bacteria: control (PBS) = 100%. Here is the method:
The activity of resveratrol on the adhesion of micro-organisms to human skin or human mucous membranes was measured.
The activity of resveratrol (3,4′,5-trihydroxystilbene) on the adhesion of micro-organisms to human skin or human mucous membranes was tested in a bacteria/skin adhesion model, such as described below.
This ex vivo bacteria/skin adhesion model is based on the use of explants of intact human skin mounted in a sandwich between a bottomless 96 wells plate and a Plexiglas support.
This ex vivo bacteria/skin adhesion model is based on the use of intact human skin mounted in a sandwich between a bottomless 96 wells plate and a Plexiglas support. The impervious individualized wells make it possible to test in a standard format the effect of resveratrol on the adhesion of Staphylococcus epidermis (resident bacteria) to the surface of the skin. The bacteria are radiolabelled in the growth phase by the incorporation of 3H-thymidine. This bacterial flora is then deposited in each well. After incubation for one hour at 20° C., the wells are washed three times with phosphate buffered saline (PBS) in order to remove the free bacteria. The acacia honey is then added at 5 and 10% and incubation allowed to proceed for 1 hour at 20° C. At the end of this incubation the content of each well is recovered and counted in scintillation fluid (desorbed bacteria). The wells are then washed with a chaotropic solution which leads to the elution of the adherent bacteria. The washing solutions are also counted in scintillation fluid (adherent bacteria). A positive control (Fucogel® acid (poly-[(α-1,3)-Fuc-(α-1,3)-Gal-(α-1,3)-galacturonic]) acid is included in the study as reference.

Where [5] appears, read: Staphylococcus, read-out: % of inhibition of adhesion of the bacteria.

By inhibition is commonly meant how much of the control response was suppressed.

As for `CCOP(=O)(CC(=O)N(Cc1ccccc1)C(C(=O)NCCOC(C)=O)C(C)C)OCC` (centres unmarked) [Compound B, (2-{benzyl-[(diethoxy-phosphoryl)-acetyl]-amino}-3-methyl-butyryl-amino)ethyl acetate], the “% inhibition of elastase activity tested” value in experiment [1] is recorded as 17%.

Consider “Oligo-[α-1,4)-Gluc-(α-1,2)-Fruc-(α-1,6)-Gluc] [Bloé´colia ®]”, for which the Adherent bacteria with Staphylococcus epidermis [2] was 76%; in the experiment with Staphylococcus epidermis [2] (listed as Bioecolia®) it was “no significant effect on adhesion”. The same compound displayed a Desorbed bacteria in the experiment with Staphylococcus epidermis [2] of 89%.

`CC(=O)N(c1cccc(C(F)(F)F)c1)C(C(=O)NCC(=O)O)C(C)C` (centres unmarked) [Compound A, {2-[acetyl-(3-trifluoromethyl-phenyl)-amino]-3-methyl-butyrylamino}acetic acid]: in experiment [3] (untreated 6.75%, UVA alone 3.9%), the “Morphometric analysis of elastin fibres (superficial dermis)” value is 6.8%. The “Morphometric analysis of collagen (superficial dermis)” value in experiment [3] (untreated 87%, UVA alone 81%) is given as 92%.

`Oc1ccc(C=Cc2cc(O)cc(O)c2)cc1` [resveratrol, 3,4′,5-trihydroxystilbene] gave an Adherent bacteria with Staphylococcus epidermis [4] (0.1 μM) of 71%. For the same compound, the Adherent bacteria in the experiment with Staphylococcus epidermis [4] (10 μM) is 64%. For the same compound, in the experiment with Staphylococcus epidermis [4] (setting [5]), the inhibition at 0.1 µM was 29% and the inhibition at 10 µM stood at 36%.

Turning to `CC(=O)OCCNC(=O)C(C(C)C)N(Cc1ccccc1)C(C)=O` (centres unmarked) [Compound D, [2-(acetyl-benzyl-amino)-3-methyl-butyrylamino]ethyl acetate], the “% inhibition of elastase activity tested” value in experiment [1] was found to be 13%.

Regarding “poly-[(α-1,3)-Fuc-(α-1,3)-Gal-(α-1,3)-galacturonic]) acid [Fucogel ®]”, in the experiment on Staphylococcus epidermis [2], the Adherent bacteria worked out at 12% and the Desorbed bacteria came out at 257%. For the same compound, the Adherent bacteria with Staphylococcus epidermis [4] (test product at 10%) was 42%.

Source of the values: patent publication US6962712B2, “Cosmetic or dermatological composition comprising of a combination of an elastase inhibitor of the N-acylaminoamide family and at least one antifungal agent or at least one antibacterial agent” (L'Oreal, priority 2001, dated 2005).
